Experimental data as given in patent US12234257B2, “Triterpene saponin derivative and use thereof” (KOREA INSTITUTE OF SCIENCE AND TECHNOLOGY, priority 2020, dated 2025).
“Also recorded” adds a separate entry of the source.

How the values were obtained:
[1] = system: autophagy-related protein markers (LC3-II, p62, p-AMPK, p-Erk, p-ULK, p-mTOR) in SH-SY5Y cells; test: Western blot of autophagy-related protein markers in SH-SY5Y cells; assay type: cell-based, human
Method: (§1) Human neuroblastoma (SH-SY5Y) cells were purchased from the American Type Culture Collection (Manassas, Va., USA) and cultured in DMEM supplemented with 10% heat-inactivated FBS and 1% penicillin/streptomycin. The SH-SY5Y cells were cultured at 37° C. in a humid atmosphere containing 5% CO2. […] The SH-SY5Y cells were transfected with AMPK siRNA and then administered with AKNS-2 at 36 hours after siRNA transfection. […] After 24 hours from treatment with the samples, the SH-SY5Y cells were recovered and used for subsequent analysis. At 24 hours after drug treatment, the culture medium was removed from the 6-well plate, and the cells were gently washed once with cold saline. Subsequently, 1 mL of cold saline was added to each well, and cells attached to the bottom were floated by rubbing the bottom with a 1 mL pipette. The suspension was collected in a 1.5 mL tube and centrifuged at 4° C. at 13000×g for 5 minutes. After removing a supernatant, 50 μL of a RIPA lysis buffer including a protease inhibitor cocktail (Roche, Mannheim, Germany) and purchased from Cell Signaling Technology (Danvers, Mass., USA) was added to the cell pellet. After shaking the mixture at 4° C. for 30 minutes, the obtained cells were centrifuged at 4° C. at 13000×g for 20 minutes. A supernatant was collected therefrom, and a concentration of proteins was measured using a standard curve constructed using BSA by the Bradford method. Then, the supernatant was diluted with a loading buffer and heated at 99° C. for 5 minutes. Resultant cells were used in a subsequent western blot analysis. Protein markers contained in lysates of the SH-SY5Y cells and brain tissue of the mice (SNpc and ST) were measured by western blot analysis. Briefly, after determining a concentration, a protein sample (20 μg) was separated by 8%, 10%, or 15% sodium dodecyl sulfate-polyacrylamide gel electrophoresis (SDS-PAGE). Then, proteins separated on the gel were transferred to a polyvinylidene fluoride (PVDF) membrane for 45 minutes using a Trans-Blot Turbo Transfer System (Bio-Rad, USA). […] The membrane was further incubated with monoclonal primary antibodies derived from rabbits (anti-GAPDH, anti-AMPK, anti-p-AMPK, anti-ULK, anti-p-ULK555, anti-Erk, anti-p-Erk, anti-mTOR, anti-p-mTOR, anti-LC3B, anti-TH, and anti-α-synuclein antibodies). The primary antibodies were diluted in a blocking buffer at a ratio of 1:1000 and incubated overnight at 4° C. On the second day, the membrane was washed with TBST three times (10 minutes each) and incubated at room temperature in a horseradish peroxidase-conjugated goat anti-rabbit IgG secondary antibody (diluted in a blocking buffer at a ratio of 1:2000). After incubating in the secondary antibody for 1 hour, the membrane was washed for 30 minutes. The protein blots on the membrane were developed using an ECL detection kit and visualized using an LAS-4000 mini system (Fujifilm, Japan). The intensity of the protein blots was quantified using Multi Gauge software (Fujifilm, Japan).

[2] = system: LC3, p62, TH and α-synuclein in SH-SY5Y cells; test: Western blot of LC3, p62, TH and α-synuclein in MPP^+-treated SH-SY5Y cells (in vitro PD model); assay type: cell-based, human
Method: as §1

[3] = AKNS-2 5 μM and 10 μM, vs control

C[C@@H]1O[C@@H](O[C@@H]2[C@@H](O)[C@H](O[C@@H]3[C@@H](O[C@@H]4OC[C@@H](O)[C@H](O)[C@H]4O)[C@@H](O)[C@H](O[C@H]4[C@H](OC(=O)[C@]56CCC(C)(C)C[C@H]5C5=CC[C@@H]7[C@@]8(C)C[C@H](O)[C@H](O[C@@H]9O[C@H](CO)[C@@H](O)[C@H](O[C@@H]%10OC[C@@H](O)[C@H](O)[C@H]%10O)[C@H]9O)[C@@](C)(CO)[C@@H]8CC[C@@]7(C)[C@]5(C)C[C@H]6O)OC[C@H](O)[C@@H]4O)O[C@H]3C)OC[C@H]2O)[C@H](O)[C@H](O)[C@H]1O [Compound 1, 3-O-β-D-xylopyranosyl-(1→3)-β-D-glucopyranosylpolygalacic acid 28-O-α-L-rhamnopyranosyl-(1→3)-β-D-xylopyranosyl-(1→4)-[β-D-xylopyranosyl-(1→3)]-α-L-rhamnopyranosyl-(1→2)-α-L-arabinopyranosyl ester]
expression level of p-Erk ([1]; 24 hours, 10 μM and 20 μM): the expression level of p-Erk significantly increased | expression of p-mTOR ([1]; 24 hours, 10 μM and 20 μM): The expression of p-mTOR was inhibited | expression level of p-AMPK ([1]; 24 hours, 5, 10 and 20 μM): the expression levels of p-AMPK and p-ULK significantly increased | expression level of p-ULK ([1]; 24 hours, 5, 10 and 20 μM): the expression levels of p-AMPK and p-ULK significantly increased | expression of LC3-II ([1]; 24 hours, 5, 10 and 20 μM): induced the expression of LC3-II, which is an important autophagy marker, in a dose-dependent manner | expression level of LC3-II ([1]; AKNS-2 5 μM and 10 μM, 24 hours, vs control): The expression level of LC3-II was significantly increased | expression level of p-Erk [1, 3]: significantly increased expression levels of p-Erk | expression of p-AMPK [1, 3]: Significantly increased expression | expression of p-ULK555 [1, 3]: significantly increased expression of p-ULK555 | expression level of LC3-II ([1]; AKNS-2 10 μM alone): significantly increased the expression level of LC3-II | expression of p62 ([1]; AKNS-2 10 μM alone): induced a significant decrease in expression of p62 | expression of p-mTOR ([1]; AKNS-2 10 μM, vs control): significantly inhibited the expression p-mTOR | expression of p-mTOR ([1]; AKNS-2 (5 μM and 10 μM), AMPK siRNA experiment, normal cells): significantly inhibited the expression of p-mTOR | expression of TH ([2]; AKNS-2 (5 μM and 10 μM) + 2 mM MPP^+ vs MPP^+ alone): the MPP^+-induced decrease in expression of TH was reversed; also recorded: the decreased expression of TH may be restored; also recorded: offset toxicity of MPP^+ and reversed the expression of TH | expression of α-synuclein ([2]; AKNS-2 + 2 mM MPP^+ vs MPP^+ alone): canceled out the effects of MPP^+ and inhibited the expression of α-synuclein; also recorded: the increased expression level of α-synuclein was decreased
